Source: patent US10160732B2, “MIF inhibitors” (MIFCARE, priority 2014, dated 2018)

Molecular target: T1, recombinant human MIF (Homo sapiens, UniProt P14174)
T1 construct: purchased RayBiotech
T1 sequence (P14174 2-115 limits assumed): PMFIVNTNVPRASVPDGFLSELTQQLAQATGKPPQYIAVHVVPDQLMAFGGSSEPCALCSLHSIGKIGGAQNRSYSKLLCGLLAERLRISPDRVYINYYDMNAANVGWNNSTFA
Assay: MIF tautomerase assay using 4-hydroxyphenylpyruvate (4-HPP)
Format: biochemical
Conditions: compounds tested at 1 nM; 300 ng/mL rhMIF; 4-HPP substrate; compared to positive control with recombinant human MIF alone
Experimental: Tautomerase activity was assessed using 4-hydroxyphenylpyruvate (4-HPP) as substrate. 4-HPP was dissolved in 50 mM ammonium acetate at pH 6.0, allowed to equilibrate to room temperature and stored at −20° C. 300 ng/mL of recombinant human MIF (rhMIF; RayBiotech, Le Perray en Yvelines, France) and tested compounds were pre-incubated at room temperature for 15 min. Tautomerase activity was assessed at room temperature, by adding 4-HHP to a 96-well plate containing 0.435 M boric acid at pH 6.6 and rhMIF with or without (positive control) tested compounds (1 nM), and by measuring the increase in absorbance at 320 nm over 10-360 s using the 2103 EnVision™ Multilabel Plate Readers (PerkinElmer, Villebon-sur-Yvette, France). Compounds were tested at 1 nM. The assay was replicated 3 times independently.
Compounds 38, 39 and 41 of the present invention were tested and compared to their respective “C═O” isosteres 38-O, 39-O and 41-O. Results are also compared to prototypical MIF inhibitor ISO-1.
Results are presented in table 2 below and represent the percentage of MIF tautomerase activity inhibition as compared to the positive control with recombinant human MIF alone.

| inhibition at 0.001 µM [%] | SMILES |
| --- | --- |
| 31 | COc1ccccc1Cn1c(=O)oc2ccc(C)cc21 [Compound 41-O] |
| 12 | Cc1ccc2oc(=O)n(Cc3ccccc3)c2c1 [Compound 39-O] |
